Source: patent publication EP0112481A1, “Beta-lactam compound” (KYOWA HAKKO KOGYO CO., LTD, priority 1982, dated 1984)
In brackets after ≈: the same amount, converted by molar mass.

Tests used:
Assay in all cases: Antibacterial effect, dilution method on Mueller-Hinton agar
Format in all cases: cell-based
[1] = tested on: Citrobacter freundii F 1526; settings: F1526, Mueller-Hinton agar (pH 7.0)
[2] = tested on: Krebsiella pneumoniae 8045; settings: Mueller-Hinton agar (pH 7.0)
[3] = tested on: Enterobacter cloacae F 1510; settings: F1510, Mueller-Hinton agar (pH 7.0)
Proteus vulgaris 6897 = settings: Mueller-Hinton agar (pH 7.0)
[4] = tested on: Staphylococcus aureus 209-P; settings: Mueller-Hinton agar (pH 7.0)
Proteus mirabilis 1287 = settings: Mueller-Hinton agar (pH 7.0)
[5] = tested on: Escherichia coli NIHJJC-2; settings: NIHJJC2, Mueller-Hinton agar (pH 7.0)
Serratia marcescens T-26 = settings: T26, Mueller-Hinton agar (pH 7.0)

| MIC [1] | MIC [2] | MIC [3] | MIC (Proteus vulgaris 6897) | MIC [4] | MIC (Proteus mirabilis 1287) | MIC [5] | MIC (Serratia marcescens T-26) | SMILES |
| --- | --- | --- | --- | --- | --- | --- | --- | --- |
| 0.2 µg/mL (≈ 0.422 µM) | 0.1 µg/mL (≈ 0.211 µM) | 0.2 µg/mL (≈ 0.422 µM) | 0.01 µg/mL (≈ 0.0211 µM) | 1.56 µg/mL (≈ 3.29 µM) | 0.01 µg/mL (≈ 0.0211 µM) | 0.01 µg/mL (≈ 0.0211 µM) | 1.56 µg/mL (≈ 3.29 µM) | CON=C(C(=O)NC1C(=O)N2C(C(=O)O)=C(C=Cc3nnnn3C)CCC12)c1csc(N)n1 (racemic) [Compound of Ref. Ex. 9, (±)-6,7-cis-7-[2-(2-aminothiazol-4-yl)-2-syn-methoxyiminoacetamido]-3-[2-(1-methyl-1H-tetrazol-5-yl)vinyl]-1-azabicyclo [4.2.0] oct-2-en-8-oxo-2-carboxylic acid] |
| 0.78 µg/mL (≈ 1.68 µM) | 0.39 µg/mL (≈ 0.841 µM) | 1.56 µg/mL (≈ 3.37 µM) | 0.01 µg/mL (≈ 0.0216 µM) | 6.25 µg/mL (≈ 13.5 µM) | 0.1 µg/mL (≈ 0.216 µM) | 0.2 µg/mL (≈ 0.432 µM) | 3.13 µg/mL (≈ 6.75 µM) | CCOC(=O)C=CC1=C(C(=O)O)N2C(=O)C(NC(=O)C(=NOC)c3csc(N)n3)C2CC1 (racemic) [Compound of Ref. Ex. 10, (±)-6,7-cis-7-[2-(2-aminothiazol-4-yl)-2-syn-methoxyiminoacetamido]-3-(2-ethoxycarbonvlviayl)-1-azabicyclo [4.2.0]oct-2-en-8-oxo-2-carboxylic acid] |
